In paper PMC5750217 (Nature Communications, 2018):

Biological target: T1, A1-T458S/T459C (mutant ASCT1) (Homo sapiens, UniProt P43007, T458S/T459C)
T1 construct: expressed in transfected cells; host or cells: Xenopus laevis oocytes (cRNA injection)
T1 sequence (P43007 1-532 T458S/T459C): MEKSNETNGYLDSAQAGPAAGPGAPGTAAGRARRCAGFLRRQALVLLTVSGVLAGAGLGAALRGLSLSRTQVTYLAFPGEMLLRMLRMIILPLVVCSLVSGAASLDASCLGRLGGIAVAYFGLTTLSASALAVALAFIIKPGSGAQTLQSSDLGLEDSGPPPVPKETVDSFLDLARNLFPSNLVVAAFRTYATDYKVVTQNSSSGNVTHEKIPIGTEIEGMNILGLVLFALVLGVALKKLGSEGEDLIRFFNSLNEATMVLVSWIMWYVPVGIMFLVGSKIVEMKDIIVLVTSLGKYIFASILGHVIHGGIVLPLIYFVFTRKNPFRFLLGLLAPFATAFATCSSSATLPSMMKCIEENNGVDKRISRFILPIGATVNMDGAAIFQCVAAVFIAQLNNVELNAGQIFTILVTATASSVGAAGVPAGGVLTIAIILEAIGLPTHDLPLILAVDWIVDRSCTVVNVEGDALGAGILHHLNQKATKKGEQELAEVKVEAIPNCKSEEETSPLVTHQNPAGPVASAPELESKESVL
Assay: Two electrode voltage clamp, substrate-activated anion current in oocytes expressing A1-T458S/T459C
Assay type: cell-based
Conditions: for EC50: A1-T458S/T459C in oocytes, NO3−-containing buffer, current at +60 mV
Procedure: All chemicals were obtained from Sigma unless otherwise stated. Stage V oocytes were harvested from female Xenopus laevis (frogs) which were obtained from Nasco (Fort Alkinson, USA). Frogs were anaesthetised with 6.5 mM tricaine neutralised with 7.14 mM sodium bicarbonate. After making an incision in the abdomen of the frog, ovarian sacs were removed and stored in OR-2 buffer (82.5 mM NaCl, 2 mM KCl, 1 mM MgCl2, 5 mM hemisodium HEPES, pH 7.5). This surgical procedure follows a protocol (#2016/970) approved by the University of Sydney Animal Ethics Committee under the Australian Code of Practice for the Care and Use of Animals for Scientific Purposes. To isolate oocytes, the ovarian sacs were cut into small sections before being digested by agitation with 2 mg per ml Collagenase A for 1–2 h. Following digestion, defoliculated oocytes were initially rinsed with OR-2, followed by frog Ringer’s solution (96 mM NaCl, 2 mM KCl, 1 mM MgCl2, 1.8 mM CaCl2, 5 mM hemisodium HEPES, pH 7.5). A total of 20 ng of transporter cRNA was injected into oocytes which were stored in frog Ringer’s solution supplemented with 0.1% gentamycin, 50 μg per ml tetracycline, 2.5 mM pyruvate and 0.5 mM theophylline at 16–18 °C.
After 2–4 days of microinjection, current recordings were made using the two electrode voltage clamp technique with a Geneclamp 500 amplifier (Axon Instruments, Foster City, CA) interfaced with a MacLab 2e chart recorder (ADI Instruments, Sydney, Australia) using the chart software, and a Digidata 1322A (Axon Instruments) controlled by an IBM-compatible computer using the pClamp software (version 10, Molecular Devices, Union City, CA). The current–voltage relationships for substrate elicited conductances were obtained by subjecting cells to 200 ms voltage pulses between −100 mV and + 60 mV in 10 mV steps. Current–voltage relationships were calculated by subtracting steady state current measurements in the absence of substrate from corresponding current measurements in the presence of substrate.
Recording solution for all experiments (except where otherwise stated) was normal frog Ringer’s solution (Cl^−-containing buffer) with complete NO3 ^− substitution for Cl^−. For Na^+ titrations, NMDG^+ was used as the substitute cation. The pH of recording solutions was adjusted using HNO3 and NaOH or KOH. Recordings were made with the bath grounded via a 3 M KCl/agar bridge connected to a 3 M KCl reservoir to minimise offset potentials. Cells were washed with Cl^−-containing buffer between substrate applications to ensure that NO3 loading of the cell was not significant. […]

NC(=O)CC[C@H](N)C(=O)O [L-glutamine]
EC50: 90 ± 10 µM

N[C@@H](CCC(=O)Nc1ccc([N+](=O)[O-])cc1)C(=O)O [GPNA, glutamyl-p-nitroanilide]
GPNA % inhibition of L-serine activated current (A1-T458S/T459C, GPNA co-applied with EC50 of L-serine, 300 µM GPNA / 1 mM GPNA (Table 1 footnote)): 41 ± 4%
IC50 (A1-T458S/T459C, co-applied with EC50 of L-serine, read-out: IC50 for inhibition of L-serine activated current): 600 ± 200 µM

N[C@@H](CO)C(=O)O [L-serine]
EC50: 45 ± 5 µM
